# Experimental data from ChEMBL document CHEMBL3507680, “University of Dundee, Gates Library screen for HepG2 cell viability”.
# Test: Human HepG2 cell viability assay in 384 well format
# Assay type: toxicity, cell-based
# Design: dose 125 nL, time 70.5 hour; cytotoxicity at 70.5 h: concentration not given beside the values
# Details: HepG2 cells, read-out: Inhibition
row,SMILES,cytotoxicity at 70.5 h [%]
1,CCS(=O)(=O)N1Cc2c(Cn3ccnc3)nn(C(C)C)c2C1,10.4
2,CCOc1ncnc2c1CCN(S(=O)(=O)CC)CC2,14.3
3,O=C(NC1CCc2[nH]c(=O)ccc2C1)C1CCOCC1 (stereo unspecified),13.7
4,CCOc1ncnc2c1CCN(S(=O)(=O)C1CC1)CC2,14
5,CN(C)C(=O)COCC1C[C@@H]2OCCN(Cc3ccco3)[C@H]2C1 (stereo partly specified),-15.5
6,Cc1ccc(N2Cc3c(CN(C)C)nn(C)c3C2)nn1,-14.2
7,OCCOCc1n[nH]c2c1CN(Cc1cccs1)C2,-2.23
8,O=C(NCC1CC[C@@]2(CNCCOC2)O1)c1cccnc1 (stereo partly specified),-2.12
9,CCS(=O)(=O)N1CCc2ncnc(C)c2CC1,-1.43
10,CNC(=O)[C@@H]1COC[C@H]2CN(C(=O)COc3ccccc3)C[C@H]21,-1.14
11,CN(C)C(=O)CN1CCC2(C1)CN(CC1CCOCC1)C2,-2.25
12,Cc1cccc(CN2C[C@@H]3OCCN(S(=O)(=O)N(C)C)[C@@H]3C2)n1,-6.13
13,O=C(c1nc2c(s1)CCCN2C(=O)C1CC1)N1CCOCC1,-6.48
14,c1ccc(-c2nnn3c2COC(CNCc2ccccn2)C3)cc1 (stereo unspecified),-5.4
15,CNC(=O)[C@@H]1COC[C@H]2CN(C(=O)c3ccc(C)c(F)c3)C[C@H]21,-6.14
16,CNC(=O)[C@@H]1C[C@H]2CN(C(=O)c3ccccn3)C[C@H]2N1C(C)C,15.1
17,O=c1cc(Cn2cncn2)nc2n1CCCN(Cc1ccsc1)C2,-11.7
18,Cc1ccc(CN2CCCn3c(nc(Cn4ccnc4)cc3=O)C2)o1,-6.14
19,O=C(N1CCOCC1)[C@@]12CCO[C@@H]1CCN(CC1CCC1)C2,-20.9
20,O=C(N1CCOCC1)[C@@]12CCO[C@@H]1CCN(C1CCCC1)C2,-15.6
21,O=C([C@@H]1CCO[C@@H]2CCN(CC3CC3)C[C@H]21)N1CCCCO1,42.7
22,Cc1cccc(N2CCCC3(C2)CN(c2nncs2)CCO3)c1 (stereo unspecified),16.1

row,SMILES,cytotoxicity at 70.5 h [%]
1,Cc1cc(C(=O)N2CCn3cnc(COCC4CC4)c3C2)no1,0.0472
2,O=C(c1cscn1)N1CCn2cnc(COCC3CC3)c2C1,-4.79
3,Fc1cccc(N2CCOC3(CCCN(c4nncs4)C3)C2)c1 (stereo unspecified),-2.67
4,Cn1cc(C2CC3(CCN(C(=O)c4ccsc4)CC3)NC2=O)cn1 (stereo unspecified),-0.304
5,Cc1ncsc1CN1CC[C@H]2OCC[C@@]2(C(=O)N2CCCO2)C1,-2.27
6,Cn1cccc1C(=O)N1C[C@@H]2COC[C@]2(CNS(C)(=O)=O)C1,-1.05
7,CN(Cc1cn2c(n1)CN(C(=O)N(C)C)CC2)Cc1ccco1,-5.21
8,CN(C)C(=O)N1CC[C@@H](O)[C@@H]1Cc1cnn(C)c1,-1.6
9,Cc1occc1C(=O)N1CCn2cnc(COCC3CC3)c2C1,-0.838
10,O=C([C@@H]1C[C@@H]2CCN(Cc3ccco3)C[C@H]2O1)N1CCCO1,-0.42
11,Cc1ccoc1C(=O)N1CC(C(=O)N2CCOCC2)C2(CCOCC2)C1 (stereo unspecified),15.4
12,CCO[C@H]1CO[C@@]2(CCCN(C(=O)c3ccc(OC)c(F)c3)C2)C1,2.45
13,CCC1=N[C@@]2(CC[C@@H]3CN(S(=O)(=O)CC)C[C@@H]32)C(=O)N1CC,-2.37
14,CCC1=N[C@@]2(CC[C@@H]3CN(S(C)(=O)=O)C[C@@H]32)C(=O)N1CC(C)C,-1.52
15,CCOC(=O)CN1CCC2(CC1)CC(NC(=O)c1ccccn1)CO2 (stereo unspecified),-1.03
16,Cc1ccsc1C(=O)N1CC(C(=O)N2CCCC2)C2(CCOCC2)C1 (stereo unspecified),0.96
17,CNC(=O)[C@@]12CCCN(c3ncccn3)[C@@H]1CN(c1ncc(C)cn1)C2,-4.37
18,CN(C)Cc1nnc2n1CCCN(C(=O)c1c[nH]cn1)C2,-0.569
19,CNC(=O)[C@@]12CCCN(c3ncccn3)[C@@H]1CN(c1ncc(F)cn1)C2,-0.144
20,O=C(COc1ccccc1)N1CCC[C@]2(C[C@@H](OCC3CC3)CO2)C1,0.205
21,CS(=O)(=O)CC(=O)NCC1OCCc2cn(CC3CC3)nc21 (stereo unspecified),-1.93
22,Cc1csc([C@H]2C[C@@H]3CCN(C(=O)c4cnccn4)C[C@H]3O2)n1,-3.11

row,SMILES,cytotoxicity at 70.5 h [%]
1,CO[C@@H]1CO[C@@]2(CCN(C(=O)COc3ccccc3C)C2)C1,-2.61
2,CCOCC1CN(C(=O)COc2ccccc2)Cc2cn(C)nc21 (stereo unspecified),-4
3,Cc1csc([C@@H]2C[C@@H]3CCN(C(=O)c4cccn4C)C[C@H]3O2)n1,9.1
4,COCC1CN(Cc2cccnc2OC)Cc2cnn(C)c21 (stereo unspecified),6.07
5,O=C1NCC[C@]12CN(Cc1ccco1)C[C@H]2c1ccccc1,1.63
6,CC(C)NC(=O)c1cc2c(nc1N(C)C)CCN(S(=O)(=O)C1CC1)CC2,7.69
7,O=C(CCn1cc(Cl)cn1)Nc1nncs1,15.8
8,Cc1c(Cl)c(C(=O)NN2CCOCC2)nn1C,-8.4
9,Cc1cc(C(F)(F)F)nn1C(C)C(=O)NN1CCN(C)CC1 (stereo unspecified),18.4
10,Cc1nn(CC(=O)N2CCN(Cc3cnn(C)c3C)CC2)cc1Cl,-9.22
11,Cc1cc(C(=O)N(C)Cc2cnn(C)c2C)n(C)n1,14
12,Cc1c(Cl)c(C(F)(F)F)nn1C(C)C(=O)NC1CCN(C)CC1 (stereo unspecified),7.5
13,Cn1ccnc1C(=O)N1CCC2(CCN2CC2CC2)C1 (stereo unspecified),9.69
14,CS(=O)(=O)N1C[C@H]2CCCN(Cc3ccsc3)[C@H]2C1,13.4
15,COCCN1CCCc2sc(C(=O)N3CCCN(C)CC3)nc21,11.7
16,COCc1n[nH]c2c1CN(Cc1cccs1)C2,-6.13
17,CC(C)CN1CC[C@@H]2[C@@H]1CCN2C(=O)N(C)C,-11.8
18,CS(=O)(=O)N1C[C@H]2CCCN(Cc3cccs3)[C@H]2C1,6.54
19,Cn1nc(Cn2ccnc2)c2c1CN(c1ncccn1)C2,-4.86
20,CN1CCN(C(=O)c2nc3c(s2)CCCN3C(=O)C2CC2)CC1,-3.93
21,CC(C)CN1CC[C@@H]2[C@@H]1CCN2C(=O)N1CCCC1,-3.86
22,Cc1nnn2c1COC(CNCc1ccccn1)C2 (stereo unspecified),-3.64

row,SMILES,cytotoxicity at 70.5 h [%]
1,CCCN1CCC2(CC1)COc1ccccc1S(=O)(=O)N(CC1CC1)C2,-4.67
2,CC(C)NC(=O)N1CCN(CC2CC2)CC2(CNC(=O)C2)C1 (stereo unspecified),-17.7
3,O=C([C@@H]1CCO[C@@H]2CCN(Cc3ccc(F)cc3)C[C@H]21)N1CCCCO1,-24.4
4,O=C(N1CCOCC1)[C@@]12CCO[C@@H]1CCN(C1CCOCC1)C2,-4.69
5,O=C(N1CCOCC1)[C@@]12CCO[C@@H]1CCN(C1CCC1)C2,46
6,O=C(N1CCOCC1)[C@@]12CCO[C@@H]1CCN(CC1CCCC1)C2,49.2
7,Cc1cccc(CN2CCC3(CCCN(C(=O)c4ccoc4)C3)C2=O)n1 (stereo unspecified),-3.14
8,Cc1ccc(C(=O)N2CCn3cnc(COCC4CC4)c3C2)cn1,-5.4
9,Cc1cccc(CN2CCC3(CCCN(C(=O)N(C)C)C3)C2=O)n1 (stereo unspecified),-3.06
10,COc1ccc(S(=O)(=O)N2Cc3c(CN(C)C)nn(C)c3C2)cc1,-3.13
11,CN(Cc1cn2c(n1)CN(C(=O)c1ccc[nH]1)CC2)Cc1ccco1,0.342
12,Cc1cccc(CN2CCC3(CCCN(C(=O)NC(C)C)C3)C2=O)n1 (stereo unspecified),-5.48
13,Cc1ncsc1CN1CC[C@H]2OCC[C@@]2(C(=O)N2CCOCC2)C1,-4.06
14,CS(=O)(=O)N1CCOCC2(CN(Cc3nccs3)CCO2)C1 (stereo unspecified),15.5
15,Cc1ccc(CN2CC[C@H]3C[C@H](C(=O)N4CCCO4)O[C@@H]3C2)o1,1.31
16,Cn1ccnc1CN1CCC2(CC1)CN(c1ccccc1)C(=O)CO2,4.73
17,COCC1CN(C(=O)c2ccco2)Cc2cn(C)nc21 (stereo unspecified),3.61
18,CNC(=O)[C@H]1C[C@H]2OCC[C@H]2N(Cc2ccc(F)cc2)C1,-4.52
19,Cn1ccnc1CN1CCC2(CC1)CN(Cc1ccccc1)C(=O)CO2,-5.92
20,COCCN1C(=O)CCC12CCN(c1ncc(F)cn1)CC2,-2.74
21,CCCS(=O)(=O)N1C[C@@H](Oc2ccccn2)[C@H]2OCCC[C@H]21,-1.57
22,O=C(NC1COC2(CCN(Cc3cccs3)CC2)C1)c1ccccn1 (stereo unspecified),-2.35

row,SMILES,cytotoxicity at 70.5 h [%]
1,O=C1CCC2(CCN(c3ncc(F)cn3)CC2)N1Cc1ccncc1,7.51
2,COCC1CN(C(=O)c2cccn2C)Cc2c1cnn2CC1CC1 (stereo unspecified),-1.46
3,COCC1CC2(CCN(C(=O)c3cncc(C)c3)CC2)CO1 (stereo unspecified),9.94
4,O=C(c1ccccn1)N1CCCC2(CCN(c3ccsc3)C2=O)C1 (stereo unspecified),12.8
5,Cc1ccc(C(=O)N2CCC3(CCN(c4ccsc4)C3=O)C2)cn1 (stereo unspecified),6.79
6,CN(C)S(=O)(=O)N1CCC2(CC1)CC(Oc1ccccn1)CO2 (stereo unspecified),0.296
7,COCC1CC2(CCN(C(=O)c3cnc4ccccc4c3)CC2)CO1 (stereo unspecified),-0.655
8,CN(C)C(=O)CN1CCC2(C1)CN(CC1CCOC1)C2 (stereo unspecified),11.8
9,CNC(=O)CNC1CC2(CCN(c3ncccn3)CC2)c2ccccc21 (stereo unspecified),-9.1
10,CNC(=O)[C@@H]1C[C@H]2CN(c3ncccn3)C[C@H]2N1C(C)C,-1.97
11,CN(C)C(=O)CN1CCOCC2(CCN(CC3CCOCC3)CC2)C1,-7.63
12,COc1ncccc1CN1C[C@@H]2COC[C@]2(COCC(=O)N(C)C)C1,-6.1
13,Cc1ccc(C(=O)N2C[C@H]3CCC[C@@]3(COCc3ccncc3)C2)cn1,-7.42
14,CN1CC(=O)N(c2cccc(F)c2)CC12CCN(Cc1ccsc1)C2 (stereo unspecified),-5.22
15,O=C(c1ccncc1)N1CCCC2(CCN(c3cccnc3)C2=O)C1 (stereo unspecified),0.0433
16,c1cc(CN2CCCC23CCCN(Cc2ccoc2)C3)ccn1 (stereo unspecified),-3.1
17,Cc1cccc(CN2CCn3cc(Cn4cccn4)nc3C2)n1,-12.9
18,COc1ncccc1CN1C[C@@H]2COC[C@]2(COc2cccnc2)C1,-13.7
